# Experimental data from BindingDB's records for patent WO2022076764 (BRISTOL-MYERS SQUIBB COMPANY, 2022).
# Columns and labels:
# fMet-Leu-Phe receptor = target: T1, fMet-Leu-Phe receptor (Homo sapiens, UniProt P21462)
# T1 sequence (P21462 whole entry): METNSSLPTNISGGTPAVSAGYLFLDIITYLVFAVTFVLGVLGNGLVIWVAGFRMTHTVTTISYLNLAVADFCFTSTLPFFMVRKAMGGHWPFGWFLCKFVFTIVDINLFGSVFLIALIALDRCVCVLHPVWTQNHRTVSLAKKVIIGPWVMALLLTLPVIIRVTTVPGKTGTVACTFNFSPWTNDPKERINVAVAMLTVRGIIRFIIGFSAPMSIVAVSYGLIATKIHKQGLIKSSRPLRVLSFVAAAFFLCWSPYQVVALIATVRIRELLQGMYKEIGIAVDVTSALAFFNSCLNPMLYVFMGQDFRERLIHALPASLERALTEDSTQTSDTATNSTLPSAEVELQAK
# [1] = target: T2, N-formyl peptide receptor 2 (Homo sapiens, UniProt P25090)
# T2 sequence (P25090 whole entry): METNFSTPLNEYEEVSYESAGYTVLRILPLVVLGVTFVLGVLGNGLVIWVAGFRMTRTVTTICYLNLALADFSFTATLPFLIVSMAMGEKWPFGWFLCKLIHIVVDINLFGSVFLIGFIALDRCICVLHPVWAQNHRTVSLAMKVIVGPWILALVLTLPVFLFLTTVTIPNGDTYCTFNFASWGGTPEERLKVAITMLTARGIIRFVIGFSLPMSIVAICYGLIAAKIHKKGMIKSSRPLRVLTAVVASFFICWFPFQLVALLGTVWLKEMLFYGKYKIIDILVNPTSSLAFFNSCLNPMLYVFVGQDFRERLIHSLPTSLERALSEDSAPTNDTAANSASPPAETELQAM
Compound,EC50 (fMet-Leu-Phe receptor) [nM],EC50 [1] [nM]
"COc1cc(F)c(-n2cc(C3CC3)nc2NC(=O)c2ccc(OC(F)F)cc2)c(F)c1 [WO2022076764, Example 37]",16,800
"COc1cc(F)c(-n2cc(-c3ccc(C(F)(F)F)cc3)nc2NC(=O)c2ccc(OC(F)F)cc2)c(F)c1 [WO2022076764, Example 6]",76,120
"COc1cc(F)c(-n2cc(C(=O)N3CCN(C)CC3)nc2NC(=O)c2ccc(OC(F)F)cc2)c(F)c1 [WO2022076764, Example 55]",280,> 10000
"COc1cc(F)c(-n2cc(C3CCC(O)CC3)nc2NC(=O)c2ccc(OC(F)F)cc2)c(F)c1 (stereo not drawn) [WO2022076764, Example 76]",10,240
"CCNC(=O)N1CCC(c2cn(-c3c(F)cc(OC)cc3F)c(NC(=O)c3ccc(OC(F)F)cc3)n2)CC1 [WO2022076764, Example 66]",28,540
"COc1ccc(-n2cc(-c3ccnc(Cl)c3)nc2NC(=O)c2ccc(OC(F)F)cc2)cc1 [WO2022076764, Example 20]",5,19
"CCOC(=O)Cc1cn(-c2c(F)cc(OC)cc2F)c(NC(=O)c2ccc(OC(F)F)cc2)n1 [WO2022076764, Example 72]",22,470
"COc1ccc(-n2cc(C(=O)NCCCO)nc2NC(=O)c2ccc(OC(F)F)cc2)cc1 [WO2022076764, Example 46]",27,210
"COc1cc(F)c(-n2cc(-c3ccc(F)cc3)nc2NC(=O)c2ccc(OC(F)F)cc2)c(F)c1 [WO2022076764, Example 4]",11,400
"COc1cc(F)c(-n2cc(-c3ccccc3F)nc2NC(=O)c2ccc(OC(F)F)cc2)c(F)c1 [WO2022076764, Example 33]",39,940
"COc1cc(F)c(-n2cc(C(=O)N3CCC(CO)CC3)nc2NC(=O)c2ccc(OC(F)F)cc2)c(F)c1 [WO2022076764, Example 69]",86,2990
"COc1cc(F)c(-n2cc(-c3ccn[nH]3)nc2NC(=O)c2ccc(OC(F)F)cc2)c(F)c1 [WO2022076764, Example 80]",59,500
"COc1cc(F)c(-n2cc(-c3ccccc3)nc2NC(=O)c2ccc(OC(F)F)cc2)c(F)c1 [WO2022076764, Example 1]",4,200
"COc1cc(F)c(-n2cc(C(=O)Nc3cn[nH]c3)nc2NC(=O)c2ccc(OC(F)F)cc2)c(F)c1 [WO2022076764, Example 62]",32,830
"COc1cc(F)c(-n2cc(C(=O)NCCO)nc2NC(=O)c2ccc(OC(F)F)cc2)c(F)c1 [WO2022076764, Example 53]",130,4100
"COc1cc(F)c(-n2cc(C(=O)N3CCNC(=O)C3)nc2NC(=O)c2ccc(OC(F)F)cc2)c(F)c1 [WO2022076764, Example 58]",170,3400
"COc1cc(F)c(-n2cc(C3CCN(C(=O)CCC(N)=O)CC3)nc2NC(=O)c2ccc(OC(F)F)cc2)c(F)c1 [WO2022076764, Example 67]",54,83
"COc1cc(F)c(-n2cc(C(=O)N3CCC(CO)C3)nc2NC(=O)c2ccc(OC(F)F)cc2)c(F)c1 (stereo not drawn) [WO2022076764, Example 59]",82,2200
"CCc1cn(-c2c(F)cc(OC)cc2F)c(NC(=O)c2ccc(OC(F)F)cc2)n1 [WO2022076764, Example 39]",21,1000
"COc1ccc(-n2cc(-c3ccc(F)cc3F)nc2NC(=O)c2ccc(OC(F)F)cc2)cc1 [WO2022076764, Example 21]",29,76
"COc1cc(F)c(-n2cc(C3CC(N)C3)nc2NC(=O)c2ccc(OC(F)F)cc2)c(F)c1 (stereo not drawn) [WO2022076764, Example 81]",4,5400
"COc1cc(F)c(-n2cc(C(=O)NCc3ccncc3)nc2NC(=O)c2ccc(OC(F)F)cc2)c(F)c1 [WO2022076764, Example 48]",110,600
"COc1ccc(-n2cc(C34CC5CC(CC(C5)C3)C4)nc2NC(=O)c2ccc(OC(F)F)cc2)cc1 [WO2022076764, Example 31]",320,> 10000
"COc1ccc(-n2cc(C(=O)N3CCNCC3)nc2NC(=O)c2ccc(OC(F)F)cc2)cc1 [WO2022076764, Example 45]",14,710
"COc1ccc(-n2cc(-c3ccc4sccc4c3)nc2NC(=O)c2ccc(OC(F)F)cc2)cc1 [WO2022076764, Example 22]",86,140

Compound,EC50 (fMet-Leu-Phe receptor) [nM],EC50 [1] [nM]
"COc1cc(F)c(-n2cc(C(=O)N3CCC(O)CC3)nc2NC(=O)c2ccc(OC(F)F)cc2)c(F)c1 [WO2022076764, Example 52]",63,> 10000
"COc1cc(F)c(-n2cc(Cc3ccccc3)nc2NC(=O)c2ccc(OC(F)F)cc2)c(F)c1 [WO2022076764, Example 71]",46,1300
"COc1ccc(-n2cc(-c3ccccc3)nc2NC(=O)c2ccc(OC(F)F)cc2)cc1 [WO2022076764, Example 2]",3,38
"COc1cc(F)c(-n2cc(C(=O)NCC3CCC(O)CC3)nc2NC(=O)c2ccc(OC(F)F)cc2)c(F)c1 (stereo not drawn) [WO2022076764, Example 49]",90,750
"COc1ccc(-n2cc(-c3nc4cc(Cl)ccc4o3)nc2NC(=O)c2ccc(OC(F)F)cc2)cc1 [WO2022076764, Example 26]",72,400
"COc1cc(F)c(-n2cc(-c3ccc(C#N)cc3)nc2NC(=O)c2ccc(OC(F)F)cc2)c(F)c1 [WO2022076764, Example 16]",27,230
"COc1cc(F)c(-n2cc(-c3ccccc3F)nc2NC(=O)c2ccc(OC(F)F)cc2)c(F)c1 [WO2022076764, Example 25]",6,47
"COc1ccc(-n2cc(-c3ccccn3)nc2NC(=O)c2ccc(OC(F)F)cc2)cc1 [WO2022076764, Example 28]",700,1030
"COc1cc(F)c(-n2cc(C3CNC3)nc2NC(=O)c2ccc(OC(F)F)cc2)c(F)c1 [WO2022076764, Example 79]",81,4200
"COc1cc(F)c(-n2cc(Cc3ccccn3)nc2NC(=O)c2ccc(OC(F)F)cc2)c(F)c1 [WO2022076764, Example 78]",56,870
"COc1cc(F)c(-n2cc(C3CCN(C(=O)CCO)CC3)nc2NC(=O)c2ccc(OC(F)F)cc2)c(F)c1 [WO2022076764, Example 68]",45,110
"COc1cc(F)c(-n2cc(C(=O)NCc3cnc(C)cn3)nc2NC(=O)c2ccc(OC(F)F)cc2)c(F)c1 [WO2022076764, Example 56]",89,110
"COc1cc(F)c(-n2cc(-c3ccc4ccccc4c3)nc2NC(=O)c2ccc(OC(F)F)cc2)c(F)c1 [WO2022076764, Example 9]",220,460
"COc1cc(F)c(-n2cc(-c3ccc(OC(F)F)cc3)nc2NC(=O)c2ccc(OC(F)F)cc2)c(F)c1 [WO2022076764, Example 7]",33,190
"COc1cc(F)c(-n2cc(C(=O)NCc3cccnc3)nc2NC(=O)c2ccc(OC(F)F)cc2)c(F)c1 [WO2022076764, Example 47]",35,110
"COc1ccc(-c2cn(-c3c(F)cc(OC)cc3F)c(NC(=O)c3ccc(OC(F)F)cc3)n2)cc1 [WO2022076764, Example 14]",39,160
"COc1cc(F)c(-n2cc(C(=O)NCc3cc[nH]n3)nc2NC(=O)c2ccc(OC(F)F)cc2)c(F)c1 [WO2022076764, Example 44]",48,370
"COc1cc(F)c(-n2cc(-c3ccc(Cl)c(C)c3)nc2NC(=O)c2ccc(OC(F)F)cc2)c(F)c1 [WO2022076764, Example 5]",47,140
"COc1ccc(-n2cc(-c3nccs3)nc2NC(=O)c2ccc(OC(F)F)cc2)cc1 [WO2022076764, Example 24]",9,110
"COc1cc(F)c(-n2cc(Cc3nnc(C)o3)nc2NC(=O)c2ccc(OC(F)F)cc2)c(F)c1 [WO2022076764, Example 73]",23,300
"COc1cc(F)c(-n2c(NC(=O)c3ccc(OC(F)F)cc3)nc(-c3ccc(Cl)cc3)c2C)c(F)c1 [WO2022076764, Example 13]",53,550
"COc1cc(F)c(-n2cc(C(=O)NCCCO)nc2NC(=O)c2ccc(OC(F)F)cc2)c(F)c1 [WO2022076764, Example 60]",56,1400
"COc1cc(F)c(-n2cc(C(=O)N3CCC[C@H]3CO)nc2NC(=O)c2ccc(OC(F)F)cc2)c(F)c1 [WO2022076764, Example 50]",77,> 10000
"COc1cc(F)c(-n2cc(C(C)C)nc2NC(=O)c2ccc(OC(F)F)cc2)c(F)c1 [WO2022076764, Example 70]",31,970
